{"source": "patent US12453696B2", "about": "“Active principle comprising a particular extract of Punica granatum and uses for preventing and/or treating acne” (priority 2020, dated 2025)", "test_system": "C. acnes", "assay": "Antibacterial activity: inhibition diameter of growth of C. acnes", "format": "cell-based, Cutibacterium acnes", "details": "for Inhibition diameter (cm): C. acnes", "text": "In addition, the antibacterial activity (C. acnes) of these three products was compared according to the method described later in the present application. The inhibition diameter is proportional to the antibacterial efficacy of the product tested.\nThe results concerning the antibacterial effect of the active ingredient according to the invention compared to those of punicalagin, the main compound of the polyphenols present in the fruit of the pomegranate, are presented in Table 6."}
{"smiles": "O=C1O[C@H]2[C@@H]3OC(=O)c4cc(O)c(O)c(O)c4-c4c(O)c(O)c5oc(=O)c6c(c(O)c(O)c7oc(=O)c4c5c76)-c4c(cc(O)c(O)c4O)C(=O)OC[C@H]3OC(O)[C@@H]2OC(=O)c2cc(O)c(O)c(O)c2-c2c1cc(O)c(O)c2O", "note": "(mixture of isomers) [Punicalagin]", "values": [{"measurement": "antibacterial activity on growth of C. acnes (in words)", "value": "has an antibacterial effect on the growth of C. acnes"}, {"measurement": "Inhibition diameter (cm)", "setting": "Deposit 15 μl", "value": "1.1 ± 0.1", "unit": "cm"}, {"measurement": "Inhibition diameter (cm)", "setting": "Deposit 30 μl", "value": "1.4 ± 0.1", "unit": "cm"}]}
